# Data published in patent US20170071976A1, “PHARMACEUTICAL SOLUTION HAVING ANTI-TUMOR EFFECT-ENHANCING AND TOXICITY-REDUCING EFFECT, AND PHARMACEUTICAL COMPOSITION COMPRISING SAME” (priority 2014, published 2017).
# Tests used:
# Type in all cases: cell-based
# [1] = system: human colon cancer HCT-116 cells; assay: Cell invasion assayed by Transwell; conditions: for Number of cells: invaded HCT-116 cells, control 76.0 ± 4.6; for Number of cells (HCT-116): invaded cells, control 65.0 ± 12.0
# Description: Inhibition of invasion of human colon cancer HCT-116 cells and human lung cancer A549 cells by deuterium oxide in combination with 5-fluorouracil or gemcitabine (by the Transwell method)
# (§1) 1.1. Warm water at 37° C. to 40° C. was prepared, a cryogenic vial was taken out of liquid nitrogen and immediately put into the 37° C.-40° C. warm water, followed by vigorous shaking until the cryogenic liquid was completely thawed; 1.2. The suspension of cryogenic cells was transferred to a centrifugal tube, 5 ml culture medium was added thereto, and the cells were well mixed in the medium by gentle pipetting; 1.3. The cell suspension was centrifuged at 800 to 1,000 rpm for 5 min, and the supernatant was discarded; 1.4. A complete culture medium was added to the cell pellet which was well mixed by gentle pipetting, the cell suspension was transferred to a culture flask, and the cells were cultured by supplementing culture medium.
# 1. […] After incubation of cells with the test drugs for 24 hours, serum was removed, and the cells were incubated under starvation with an incomplete culture medium for 24 hours; 3. Matrigel was placed at 4° C. in advance to thaw overnight; 4. Thawed Matrigel was 1:1 diluted with the incomplete culture medium, 30 μl diluted Matrigel was added to the upper compartment of Transwell and incubated at 37° C. for 120 min to gel the Matrigel; 5. Cells from different groups were digested, counted, and then adjusted to a density of 1×10^5 cells/ml with the incomplete culture medium, 100 μl cell suspension was added to the upper compartment (small compartment) of Transwell, and 500 μl medium containing 20% FBS was added to the lower compartment of Transwell; 6. A 24-well cell culture plate was placed in an incubator at 37° C. and 5% CO2 to culture the cells for 24 hours; 7. Cell counting: cells in the Matrigel and the upper compartment were wiped off with a cotton swab, the Transwell was removed, followed by inversion and air drying, 500 μl medium containing 0.1% crystal violet was added to the 24-well plate, the small compartment was placed in the medium to allow the membrane to be immersed in the dye, removed after holding at 37° C. for 30 min, washed with PBS, and photographed in 3 fields along the diameter (200× magnification) for cell counting. 8. The assay was repeated one more time.
# [2] = system: human colon cancer HCT-116 cells; assay: Cell cycle by PI single staining (flow cytometry); conditions: 72 hours
# Description: Effect of deuterium oxide on the cell cycle of human lung cancer A549 cells and human colon cancer HCT-116 cells
# A KGA511 Cell cycle assay kit was provided by NANJING KEYGEN BIOTECH. CO., LTD.
# The flow cytometer was FACS Calibur provided by Becton-Dickinson, US.
# as §1, with “vial of cells” for “vial”
# 2.1. The original culture medium was removed by pipetting when the cell coverage reached 80% to 90% in the culture bottle; 2.2. A suitable amount of trypsin (0.25%) was added to digest for 1 to 2 min; 2.3. When all the cells became round, an equal volume of culture medium containing serum was added to cease the digestion; 2.4. The cells were blown by pipetting to suspend, then drawn into a 15 ml centrifugal tube, and centrifuged at 1000 rpm for 5 min; 2.5. The supernatant was discarded, and the cells were re-suspended in 1 to 2 ml culture medium and transferred to a culture bottle for further culturing.
# 1. Cells growing in the exponential phase were digested and inoculated to a 6-well plate; on the next day, after the cells attached to the wall, cell culture media containing corresponding test drugs were added according to different groups, and a negative control group was also set; 2. After treatment with test drugs for 72 hours, cells were digested with 0.25% pancreatin (EDTA-free) and collected; 3. The cells were washed with PBS once (centrifuged at 2,000 rpm for 5 min), and 5×10^5 cells were collected; 4. The prepared suspension of individual cells was fixed with 70% (v/v) ethanol for 2 hours (or overnight), and stored at 4° C.; before staining, the fixing solution was washed away with PBS (if necessary, the cell suspension was filtered once through a 200-mesh screen); 5. 100 μl RNase A was added, and the cells were water-bathed at 37° C. for 30 min; 6. 400 μl PI was added and well mixed for staining, and the cells were kept at 4° C. in darkness for 30 min; 7. In a detection apparatus, red fluorescence with an excitation wavelength of 488 nm was recorded.
# [3] = system: human lung cancer A549 cells; assay: Cell invasion assayed by Transwell; conditions: invaded cells, control 183.0 ± 12.3
# Description: Cell lines: human colon cancer HCT-116 cells and human lung cancer A549 cells were provided by NANJING […] BIOTECH. CO., LTD. […] The cell suspension was centrifuged at 800 to 1,000 rpm for 5 min, and the supernatant was discarded; 1.4. A complete culture medium was added to the cell pellet which was well mixed by gentle pipetting, the cell suspension was transferred to a culture flask, and the cells were cultured by supplementing culture medium. 1. […] After incubation of cells with the test drugs for 24 hours, serum was removed, and the cells were incubated under starvation with an incomplete culture medium for 24 hours; 3. Matrigel was placed at 4° C. in advance to thaw overnight; 4. Thawed Matrigel was 1:1 diluted with the incomplete culture medium, 30 μl diluted Matrigel was added to the upper compartment of Transwell and incubated at 37° C. for 120 min to gel the Matrigel; 5. Cells from different groups were digested, counted, and then adjusted to a density of 1×10^5 cells/ml with the incomplete culture medium, 100 μl cell suspension was added to the upper compartment (small compartment) of Transwell, and 500 μl medium containing 20% FBS was added to the lower compartment of Transwell; 6. A 24-well cell culture plate was placed in an incubator at 37° C. and 5% CO2 to culture the cells for 24 hours; 7. […] The assay was repeated one more time.
structure (smiles),measurement,setting,value
"O=c1[nH]cc(F)c(=O)[nH]1 [Example 5-FU, 5-fluorouracil]",Number of cells,[1]; 5-FU 0.195 ug/ml in NS,66.0 ± 2.6
same,Number of cells,[1]; 5-FU 0.39 ug/ml in NS,47.3 ± 4.0
same,Number of cells,[1]; 5-FU 0.78 ug/ml in NS,31.3 ± 1.5
same,Number of cells,[1]; 5-FU 1.56 ug/ml in NS,23.0 ± 4.6
same,Number of cells,[1]; 5-FU 3.125 ug/ml in NS,12.0 ± 2.0
same,Number of cells,[1]; 5-FU 6.25 ug/ml in NS,10.7 ± 1.5
same,Number of cells,[1]; 5-FU 12.5 ug/ml in NS,6.3 ± 0.6
same,G1 Phase,[2]; 5-FU 12.5 ug/ml in NS,32.69 ± 8.66%
same,G2 Phase,[2]; 5-FU 12.5 ug/ml in NS,41.24 ± 2.97%
same,S Phase,[2]; 5-FU 12.5 ug/ml in NS,26.07 ± 11.32%
[2H]O[2H] [Deuterium oxide],Number of cells (HCT-116),[1]; deuterium oxide 1.8% (v/v),29.3 ± 5.1
same,Number of cells (HCT-116),[1]; deuterium oxide 7.5% (v/v),3.7 ± 0.6
same,Number of cells (HCT-116),[1]; deuterium oxide 15% (v/v),3.0 ± 1.0
same,Number of cells (HCT-116),[1]; deuterium oxide 30% (v/v),1.70 ± 0.6
same,Number of cells (HCT-116),[1]; deuterium oxide […] (v/v),16.3 ± 3.2
same,Number of cells (A549),[3]; deuterium oxide 1.8% (v/v),74.3 ± 11.0
same,Number of cells (A549),[3]; deuterium oxide 7.5% (v/v),43.0 ± 4.4
same,Number of cells (A549),[3]; deuterium oxide 15% (v/v),29.3 ± 1.5
same,Number of cells (A549),[3]; deuterium oxide 30% (v/v),22.0 ± 1.7
same,Number of cells (A549),[3]; deuterium oxide […] (v/v),54.0 ± 2.0
same,G2 Phase,"[2]; deuterium oxide 30% v/v, control 8.06 ± 1.89",4.21 ± 0.95%
same,S Phase,"[2]; deuterium oxide 30% v/v, control 9.40 ± 1.83",6.61 ± 1.41%
same,G1 Phase,"[2]; deuterium oxide 30% v/v, control 82.53 ± 1.76",89.19 ± 3.81%
